The results in this text go back to article PMC4259414, “HS-133, a novel fluorescent phosphatidylinositol 3-kinase inhibitor as a potential imaging and anticancer agent for targeted therapy” (Oncotarget, 2014).

For series [1], the system named is HIF-1α and VEGF in SkBr3 cells. The series is described as follows: hypoxia-induced HIF-1α and VEGF, Western blotting and ELISA. It is filed as cell-based, human. The procedure: Since HIF-1α is the major regulator of cellular adaptive responses to hypoxia, we examined the effect of HS-133 on the expression of the HIF-1α in SkBr3 cells. The cells were treated with various concentrations of HS-133 (1–50 μM) under hypoxic mimicking conditions induced by a treatment with 100 μM CoCl2 for 16 h. […] To further determine the effect of HS-133 on hypoxia-induced VEGF, an immediate downstream target gene of HIF-1α, the protein and production of VEGF were measured by western blotting and ELISA in the SkBr3 cells.
(§1) The cells were washed three times with ice-cold PBS before lysis, and were lysed with a buffer containing 1% Triton X-100, 1% Nonidet P-40 (NP-40), as well as protease and phosphatase inhibitor cocktails (GenDEPOT, Barker, TX). Equal amounts of protein were separated by 10% sodium dodecyl sulfate-polyacrylamide gel electrophoresis (SDS-PAGE) and transferred onto the polyvinylidene fluoride (PVDF) membranes (Millipore, Bedford, MA). Immunostaining was performed by incubating the blots with primary antibodies, followed by horseradish peroxidase (HRP)-conjugated secondary antibody and detected with an enhanced chemiluminescence (ECL) plus system (Amersham Biosciences, Piscataway, NJ). […]
The amount of VEGF secreted into the media was measured by sandwich ELISA. […] The absorbance at 450 nm was measured with a 96-well plate reader.

Series [2] in a line: tissue distribution, tissue-to-plasma ratio. The class given is in vivo, BALB/c nude mice bearing SkBr3 xenograft. To be noted: BALB/c nude, mouse, PO 10 mg/kg, 30 min post-dose. The text has this: Various tissue concentrations, such as the heart, lung, liver, kidney, spleen, brain, and tumor in BALB/c nude mice bearing SkBr3 xenograft are shown in Fig. 9B. The ratios of each tissue-to-plasma (KP value) were 3.26, 4.18, 0.11, 1.99, 3.07, 4.99, and 2.06 for the heart, lung, liver, kidney, spleen, brain, and tumor, respectively. […] Thus, this high concentration level of HS-133 in tumor tissues may be contributed to in vivo efficacy in the SkBr3 xenograft model.
The heart, lung, liver, kidney, brain, spleen, and tumor were collected at 30 min post-dose from 3 different animals at each time point, rinsed with ice-cold saline, weighed and stored at −80°C until analysis. For HS-133 quantification, mouse tissues were homogenized with three times the volume of PBS. The homogenates were extracted by protein precipitation with acetonitrile. LC-MS/MS analysis was conducted as described for the plasma. The homogenate concentrations were converted to tissue concentrations for the calculations of each tissue-to-plasma ratio.

Series [3] deals with T1, PI3Kα (Homo sapiens, UniProt P42336).
T1 construct: purchased Reaction Biology Corp. (Malvern, PA), contract assay service
The series is described as follows: radiometric kinase assay ([γ-33P]-ATP), Reaction Biology Corp. It is filed as biochemical.

The subject of series [4] is PI3K/Akt pathway in SkBr3 cells. The series is described as follows: Western blotting of PI3K/Akt signaling in SkBr3 cells. The class given is cell-based, human. To be noted: SkBr3, 1–50 μM, 6 h. On the procedure: It has been shown that breast tumor cell growth is closely related to the activation of the PI3K/Akt pathway. […] Therefore, we evaluated the effects of HS-133 on the PI3K/Akt pathway in breast cancer cells. The PI3K inhibitory activity of HS-133 was assessed in the SkBr3 cells.
as §1, with “NJ). The primary mouse antibodies against the following factors were used: p27 (Cell Signaling Technologies, Danvers, MA), cyclin D1, hypoxia-inducible factor-1α (HIF-1α, BD Biosciences, SanJose, CA), VEGF (Novus Biologicals, Littleton, CO) and β-actin (Abcam, Cambridge, MA).” for “NJ).”

The test system of series [5] is SkBr3 cells. Kind of series: cell cycle analysis by PI staining and flow cytometry. To be noted: SkBr3, 1, 10, 50 μM, 24 h. It is filed as cell-based, human. On the procedure: To examine the relationship between the growth inhibitory effect of HS-133 and cell cycle progression, we analyzed cell cycle distribution of SkBr3 cells by HS-133 using a flow cytometry. The SkBr3 cells were treated for 24 h with various concentrations of HS-133 (1, 10, 50 μM) and collected and stained with PI and then analyzed by FACS. […] The up-regulation of p27, cyclin dependent kinase (CDK) inhibitor, is related to G0/G1 cell cycle arrest and contributes to the down-regulation of cyclin D1 [31]. Thus, we evaluated the effect of HS-133 on the protein expressions of p27 and cyclin D1. HS-133 increased the expression of p27 while decreasing cyclin D1 expression (Fig. 4C).
The SkBr3 cells were plated in 100 mm-diameter culture dishes. On the following day, the cells were treated with various concentrations of HS-133 or 0.1% DMSO for 24 h. The floating and adherent cells were collected and fixed in cold 70% ethanol at 4°C overnight. […] The events were evaluated for each sample and the cell cycle distribution was analyzed using Cell Quest software (Becton Dickinson). The results were presented as the number of cells versus the amount of DNA, as indicated by the intensity of a fluorescence signal. […]

Like-named read-outs stand apart in the source and are kept apart here.

T1 sequence (P42336 whole entry): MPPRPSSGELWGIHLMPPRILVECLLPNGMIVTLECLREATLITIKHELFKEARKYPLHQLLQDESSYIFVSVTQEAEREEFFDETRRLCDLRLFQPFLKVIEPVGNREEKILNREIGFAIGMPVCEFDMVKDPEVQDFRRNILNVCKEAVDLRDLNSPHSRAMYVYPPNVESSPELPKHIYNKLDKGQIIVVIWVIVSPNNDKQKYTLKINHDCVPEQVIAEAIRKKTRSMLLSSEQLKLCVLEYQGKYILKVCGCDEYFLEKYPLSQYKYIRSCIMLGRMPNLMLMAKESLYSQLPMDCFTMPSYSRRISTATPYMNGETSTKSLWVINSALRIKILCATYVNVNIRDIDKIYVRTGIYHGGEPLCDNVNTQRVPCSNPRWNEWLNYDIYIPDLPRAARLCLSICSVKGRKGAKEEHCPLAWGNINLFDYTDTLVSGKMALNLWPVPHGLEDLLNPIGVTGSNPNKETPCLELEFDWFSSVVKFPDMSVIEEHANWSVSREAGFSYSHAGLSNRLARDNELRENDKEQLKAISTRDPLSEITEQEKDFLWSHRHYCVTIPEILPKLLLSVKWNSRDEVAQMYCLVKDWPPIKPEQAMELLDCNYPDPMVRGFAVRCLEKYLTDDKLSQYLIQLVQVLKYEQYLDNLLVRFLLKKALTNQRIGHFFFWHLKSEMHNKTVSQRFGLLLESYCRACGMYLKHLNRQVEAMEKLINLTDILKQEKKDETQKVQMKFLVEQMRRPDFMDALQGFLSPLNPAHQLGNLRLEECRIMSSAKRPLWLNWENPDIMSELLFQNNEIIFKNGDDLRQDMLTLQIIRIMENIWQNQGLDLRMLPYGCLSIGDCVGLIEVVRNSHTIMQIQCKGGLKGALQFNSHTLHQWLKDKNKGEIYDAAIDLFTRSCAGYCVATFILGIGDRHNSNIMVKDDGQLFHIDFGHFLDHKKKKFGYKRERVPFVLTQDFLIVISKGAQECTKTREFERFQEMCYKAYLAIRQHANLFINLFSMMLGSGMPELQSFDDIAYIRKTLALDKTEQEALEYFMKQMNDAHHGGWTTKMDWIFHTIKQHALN
T1 sequence (P27986 whole entry partner): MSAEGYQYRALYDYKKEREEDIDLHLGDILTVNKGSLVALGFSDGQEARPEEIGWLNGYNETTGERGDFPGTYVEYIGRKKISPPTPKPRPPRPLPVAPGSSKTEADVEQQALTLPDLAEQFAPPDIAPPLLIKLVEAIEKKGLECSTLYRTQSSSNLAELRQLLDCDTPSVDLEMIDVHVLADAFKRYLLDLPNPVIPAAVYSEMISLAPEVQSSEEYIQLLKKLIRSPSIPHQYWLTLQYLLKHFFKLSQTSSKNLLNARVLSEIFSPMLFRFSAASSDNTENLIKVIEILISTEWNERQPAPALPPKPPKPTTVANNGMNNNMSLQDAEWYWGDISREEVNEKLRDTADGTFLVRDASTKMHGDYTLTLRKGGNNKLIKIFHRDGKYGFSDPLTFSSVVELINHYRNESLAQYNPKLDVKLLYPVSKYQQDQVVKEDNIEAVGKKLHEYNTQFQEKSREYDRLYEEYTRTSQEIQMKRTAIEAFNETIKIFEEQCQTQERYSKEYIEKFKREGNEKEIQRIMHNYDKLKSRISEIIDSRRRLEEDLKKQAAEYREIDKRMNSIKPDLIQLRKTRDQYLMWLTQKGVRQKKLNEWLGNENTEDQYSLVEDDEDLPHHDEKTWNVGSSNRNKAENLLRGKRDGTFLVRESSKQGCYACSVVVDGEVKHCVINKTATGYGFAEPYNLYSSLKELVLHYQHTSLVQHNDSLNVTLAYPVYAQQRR

Consider `CC(=O)Nc1ccc(-c2nc3c(c(=O)n(C)c(=O)n3C)n2-c2cccc(F)c2)cc1` [HS-133, N-(4-(7-(3-Fluorophenyl)-1,3-dimethyl-2,6-dioxo-2,3,6,7-tetrahydro-1H-purin-8-yl)phenyl) acetamide], for which, in series [1] (SkBr3, 1–50 μM, 100 μM CoCl2, 16 h), the “hypoxia-induced HIF-1α expression” value was “inhibited the hypoxia-induced HIF-1α expression”. Also, the “hypoxia-induced VEGF expression and production” value in series [1] (SkBr3, CoCl2, Western blotting and ELISA) is “suppress the VEGF expression and production in a dose-dependent manner”. Besides, the Kp at 0.5 h came to 4.99 in series [2] (brain, read-out: tissue-to-plasma ratio (KP value), brain); 3.26 in series [2] (heart, read-out: tissue-to-plasma ratio (KP value), heart); 1.99 in series [2] (kidney, read-out: tissue-to-plasma ratio (KP value), kidney); 0.11 in series [2] (liver, read-out: tissue-to-plasma ratio (KP value), liver); 4.18 in series [2] (lung, read-out: tissue-to-plasma ratio (KP value), lung); 3.07 in series [2] (spleen, read-out: tissue-to-plasma ratio (KP value), spleen). Also, the Kp at 0.5 h in series [2] (tumor, read-out: tissue-to-plasma ratio (KP value), tumor) was 2.06. Moreover, the EC50 in series [3] (Fig. 2A, read-out: EC50 (printed in Fig. 2A), inhibitory activity against PI3Kα in vitro) came out at 992 nM. The IC50 in series [3] (radiometric kinase assay, read-out: IC50 against PI3Kα) stood at 992 nM. Besides, the “phosphorylation of Akt, mTOR, p70S6K and 4E-BP1” value in series [4] was “effectively suppressed”. Further, the cell cycle distribution result in series [5] is given as “increased the number of cells in the G0/G1 phase”.
